One assay has as its target T1, M1 muscarinic receptor (Homo sapiens, UniProt P11229).
T1 construct: expressed in transfected cells; host or cells: CHO cells (M1-CHO, under zeocin and G418 selection)
T1 sequence (P11229 1-460): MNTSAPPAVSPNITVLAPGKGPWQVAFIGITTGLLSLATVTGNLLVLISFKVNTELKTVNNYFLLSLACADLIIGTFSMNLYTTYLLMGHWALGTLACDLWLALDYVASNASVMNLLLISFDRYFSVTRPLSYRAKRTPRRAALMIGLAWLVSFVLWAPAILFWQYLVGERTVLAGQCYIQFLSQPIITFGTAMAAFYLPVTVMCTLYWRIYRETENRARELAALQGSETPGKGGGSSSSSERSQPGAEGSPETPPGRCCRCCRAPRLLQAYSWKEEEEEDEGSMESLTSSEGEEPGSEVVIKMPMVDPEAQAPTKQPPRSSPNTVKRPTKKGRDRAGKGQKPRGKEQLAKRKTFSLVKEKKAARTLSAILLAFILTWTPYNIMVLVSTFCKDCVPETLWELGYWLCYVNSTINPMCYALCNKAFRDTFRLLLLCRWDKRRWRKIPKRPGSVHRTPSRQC
Put plainly: Functional mobilization of intracellular calcium (FLIPR, Fluo-3), M1-CHO cells. The assay is classed as cell-based. Conditions: for Emax: 100% efficacy is the maximum response obtained with the Carbachol control, read-out: M1 Efficacy. The method in brief: (§1)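 CHO lines stably carrying the muscarinic subtype, dye-loaded with Fluo-3 at 37° C for 60-90 min, receive test compound in 0.5% DMSO. Agonist effects are read directly; antagonist effects against carbachol at EC80 after 15 min pre-incubation.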

A further assay addresses T2, M4 muscarinic receptor (Homo sapiens, UniProt P08173).
T2 construct: expressed in transfected cells; host or cells: CHO cells (M4-CHO, under puromycin, zeocin and blasticidin selection)
T2 sequence (P08173 1-479): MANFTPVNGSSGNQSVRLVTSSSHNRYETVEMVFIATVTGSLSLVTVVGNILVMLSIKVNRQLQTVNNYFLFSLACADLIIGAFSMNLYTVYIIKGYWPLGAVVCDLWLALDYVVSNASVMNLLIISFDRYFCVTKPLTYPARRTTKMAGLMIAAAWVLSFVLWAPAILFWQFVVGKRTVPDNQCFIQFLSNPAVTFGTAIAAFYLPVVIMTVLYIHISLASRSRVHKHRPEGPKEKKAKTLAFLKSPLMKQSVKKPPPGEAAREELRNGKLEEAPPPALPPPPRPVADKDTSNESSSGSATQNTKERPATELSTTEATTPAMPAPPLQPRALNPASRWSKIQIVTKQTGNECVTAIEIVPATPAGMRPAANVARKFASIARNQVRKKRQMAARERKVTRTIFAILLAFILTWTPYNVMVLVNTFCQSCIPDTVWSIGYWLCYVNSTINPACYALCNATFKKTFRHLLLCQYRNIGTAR
Put plainly: Functional mobilization of intracellular calcium (FLIPR, Fluo-3), M4-CHO cells. The format is cell-based. Conditions: for Emax: 100% efficacy is the maximum response obtained with the Carbachol control, read-out: M4 Efficacy. The method in brief: as §1

Where [1] appears, read: compound nos. 1-454, M1-CHO cells, calcium mobilization.
Setting [2] is: compound nos. 1-454, M4-CHO cells, calcium mobilization.

SMILES strings stand for the structures. Read-outs that look alike come from different tables or passages of the source.

We go through 20 compounds from patent US7858635B2 (priority 2005, dated 2010).

In the case of `CCOC(=O)N1C2CCC1CC(N1CCC3(CC1)CN(C(C)=O)c1ccc(F)cc13)C2` (centres unmarked) [compound 371], the Emax at M1 muscarinic receptor (compound nos. 1-454) was 65 to 85%; at M4 muscarinic receptor (compound nos. 1-454) it was above 70%. Besides, the “M1 Activity” value at M1 muscarinic receptor (setting [1]) was “+++ (activity was measured to be less than or equal to 0.7 μM)”. Further, on M4 muscarinic receptor (setting [2]), the “M4 Activity” value is reported as “+ (activity was measured to be greater than or equal to 4.0 μM)”.
The corresponding values for `CCOC(=O)N1CCC(N2CCC3(CC2)CN(C(C)=O)c2ccc(F)cc23)C1` (centres unmarked) [compound 113] are 65 to 85%, below 55%, “+++ (activity was measured to be less than or equal to 0.7 μM)” and “+ (activity was measured to be greater than or equal to 4.0 μM)”.
As to `COCCOC(=O)N1CCCC(N2CCC3(CC2)CN(C(C)=O)c2ccc(F)cc23)CC1` (centres unmarked) [compound 65], the figures for the Emax at M1 muscarinic receptor (compound nos. 1-454) and on M4 muscarinic receptor (compound nos. 1-454) were 65 to 85% and below 55%, respectively. Besides, on M1 muscarinic receptor (setting [1]), the “M1 Activity” value was “++ (activity was measured to be between 0.7 μM and 3.0 μM)”. Also, the “M4 Activity” value at M4 muscarinic receptor (setting [2]) is “+ (activity was measured to be greater than or equal to 4.0 μM)”.
Take `CCOC(=O)N1CCC(N2CCC3(CC2)CN(C(=O)CC(C)(C)C)c2ccc(F)cc23)CC1` [compound 194]: the Emax is above 85% on M1 muscarinic receptor (compound nos. 1-454) and 55 to 70% on M4 muscarinic receptor (compound nos. 1-454). The “M1 Activity” value at M1 muscarinic receptor (setting [1]) is “+++ (activity was measured to be less than or equal to 0.7 μM)”. Also, the “M4 Activity” value on M4 muscarinic receptor (setting [2]) is listed as “+ (activity was measured to be greater than or equal to 4.0 μM)”.
For the compound `CCCOC(=O)N1C2CCC1CC(N1CCC3(CC1)COc1ccc(F)cc13)C2` (centres unmarked) [compound 283], the Emax on M1 muscarinic receptor (compound nos. 1-454) was in the range of 65 to 85%; at M4 muscarinic receptor (compound nos. 1-454) it was 55 to 70%. Further, on M1 muscarinic receptor (setting [1]), the “M1 Activity” value was “++ (activity was measured to be between 0.7 μM and 3.0 μM)”. Also, the “M4 Activity” value at M4 muscarinic receptor (setting [2]) is on record as “+ (activity was measured to be greater than or equal to 4.0 μM)”.
`CN(C)C(=O)N1CC2(CCN(C3CC4CCC(C3)N4C(=O)O[C@H]3CCOC3)CC2)c2cc(F)ccc21` (some centres unmarked) [compound 130]: the results for the Emax on M1 muscarinic receptor (compound nos. 1-454) and at M4 muscarinic receptor (compound nos. 1-454) were below 65% and below 55%, respectively. In addition, on M1 muscarinic receptor (setting [1]), the “M1 Activity” value is given as “+++ (activity was measured to be less than or equal to 0.7 μM)”. For the same compound, the “M4 Activity” value on M4 muscarinic receptor (setting [2]) was “++ (activity was measured to be between 0.1 μM and 4.0 μM)”.
Consider `Cc1ccc2c(c1)C1(CCN(C3CC4CCC3C4)CC1)CN2C(=O)C1CC1` (centres unmarked) [compound 51], for which the results for the Emax at M1 muscarinic receptor (compound nos. 1-454) and at M4 muscarinic receptor (compound nos. 1-454) were 65 to 85% and 55 to 70%, respectively. Further, the “M1 Activity” value at M1 muscarinic receptor (setting [1]) was “+++ (activity was measured to be less than or equal to 0.7 μM)”. For the same compound, the “M4 Activity” value at M4 muscarinic receptor (setting [2]) is “++ (activity was measured to be between 0.1 μM and 4.0 μM)”.
Take `CC(=O)CN1CC2(CCN(C[C@@H]3C[C@H]4C=C[C@H]3C4)CC2)c2cc(F)ccc21` [compound 385]: on M1 muscarinic receptor (compound nos. 1-454), the “M1 Activity” value was “++ (activity was measured to be between 0.7 μM and 3.0 μM)”; the Emax fell in the range of 65 to 85%. At M4 muscarinic receptor (compound nos. 1-454), the “M4 Activity” value is recorded as “+ (activity was measured to be greater than or equal to 4.0 μM)” and the Emax was below 55%.
Take `Cc1ccc2c(c1)C1(CCN(C3CC4CCC3C4)CC1)CN2S(=O)(=O)c1ccccc1` (centres unmarked) [compound 354]: the Emax is 65 to 85% on M1 muscarinic receptor (compound nos. 1-454) and 55 to 70% on M4 muscarinic receptor (compound nos. 1-454). The “M1 Activity” value on M1 muscarinic receptor (setting [1]) is given as “+ (activity was measured to be greater than or equal to 3.0 μM)”. Moreover, the “M4 Activity” value on M4 muscarinic receptor (setting [2]) was “+ (activity was measured to be greater than or equal to 4.0 μM)”.
Taken in the same sequence, the figures for `CCOC(=O)N1CCC(N2CCC3(CC2)CN(C(=O)OCC(C)C)c2ccc(F)cc23)CC1` [compound 30] were above 85%, above 70%, “+++ (activity was measured to be less than or equal to 0.7 μM)” and “+++ (activity was measured to be less than or equal to 0.1 μM)”.
On to `CC(=O)N1CC2(CCN(C3CCC[C@@H](C)C3)CC2)c2cc(F)ccc21` (some centres unmarked) [compound 240], for which the Emax at M1 muscarinic receptor (compound nos. 1-454) is 65 to 85%; at M4 muscarinic receptor (compound nos. 1-454), above 70%. Moreover, the “M1 Activity” value at M1 muscarinic receptor (setting [1]) is “++ (activity was measured to be between 0.7 μM and 3.0 μM)”. The “M4 Activity” value on M4 muscarinic receptor (setting [2]) was “+ (activity was measured to be greater than or equal to 4.0 μM)”.
For the compound `CC(=O)N1CC2(CCN(CC3CCN(C(=O)O[C@@H]4CCOC4)CC3)CC2)c2cc(F)ccc21` [compound 14], the results for the Emax at M1 muscarinic receptor (compound nos. 1-454) and at M4 muscarinic receptor (compound nos. 1-454) were 65 to 85% and above 70%, respectively. Besides, on M1 muscarinic receptor (setting [1]), the “M1 Activity” value is given as “+++ (activity was measured to be less than or equal to 0.7 μM)”. Moreover, at M4 muscarinic receptor (setting [2]), the “M4 Activity” value is “+++ (activity was measured to be less than or equal to 0.1 μM)”.
With `CCOC(=O)N1C2CCC1CC(N1CCC3(CC1)CN(S(C)(=O)=O)c1ccc(F)cc13)C2` (centres unmarked) [compound 103], the values for the Emax on M1 muscarinic receptor (compound nos. 1-454) and at M4 muscarinic receptor (compound nos. 1-454) were 65 to 85% and below 55%, respectively. Further, the “M1 Activity” value at M1 muscarinic receptor (setting [1]) was “+++ (activity was measured to be less than or equal to 0.7 μM)”. Further, at M4 muscarinic receptor (setting [2]), the “M4 Activity” value was “++ (activity was measured to be between 0.1 μM and 4.0 μM)”.
For `CC(C)OC(=O)N1C2CCC1CC(N1CCC3(CC1)COc1ccc(F)cc13)C2` (centres unmarked) [compound 320], the Emax on M1 muscarinic receptor (compound nos. 1-454) is 65 to 85%; at M4 muscarinic receptor (compound nos. 1-454), below 55%. Besides, the “M1 Activity” value at M1 muscarinic receptor (setting [1]) is “++ (activity was measured to be between 0.7 μM and 3.0 μM)”. On M4 muscarinic receptor (setting [2]), the “M4 Activity” value is on record as “+ (activity was measured to be greater than or equal to 4.0 μM)”.
Consider `CCOC(=O)N1CCC(N2CCC3(CC2)CN(C(=O)C(C)C)c2ccc(F)cc23)CC1` [compound 142], for which the Emax on M1 muscarinic receptor (compound nos. 1-454) was 65 to 85%; at M4 muscarinic receptor (compound nos. 1-454), above 70%. In addition, the “M1 Activity” value on M1 muscarinic receptor (setting [1]) is “+++ (activity was measured to be less than or equal to 0.7 μM)”. The “M4 Activity” value at M4 muscarinic receptor (setting [2]) is recorded as “+ (activity was measured to be greater than or equal to 4.0 μM)”.
As to `CCc1nsc(N2CCC(N3CCC4(CC3)C[C@H](N(CC(F)(F)F)C(C)=O)c3ccccc34)CC2)n1` [compound 502], the Emax at M1 muscarinic receptor (compound nos. 455-509) and on M4 muscarinic receptor (compound nos. 455-509) was 25 to 100% throughout. On M1 muscarinic receptor (compounds 455-509), the “M1 Activity” value was “++ (activity was measured to be between 2.0 μM and 5.0 μM)”. Further, the “M4 Activity” value at M4 muscarinic receptor (compounds 455-509) was “++ (activity was measured to be between 2.0 μM and 5.0 μM)”.
On to `CS(=O)(=O)N1CC2(CCN(C3CC4CCC(C3)N4C(=O)O[C@@H]3CCOC3)CC2)c2cc(F)ccc21` (some centres unmarked) [compound 16], for which the values for the Emax on M1 muscarinic receptor (compound nos. 1-454) and on M4 muscarinic receptor (compound nos. 1-454) were 65 to 85% and 55 to 70%, respectively. Moreover, the “M1 Activity” value on M1 muscarinic receptor (setting [1]) was “+++ (activity was measured to be less than or equal to 0.7 μM)”. Further, the “M4 Activity” value on M4 muscarinic receptor (setting [2]) is reported as “+++ (activity was measured to be less than or equal to 0.1 μM)”.
`CC(C)(C)COC(=O)N1C2CCC1CC(N1CCC3(CC1)COc1ccc(F)cc13)C2` (centres unmarked) [compound 247]: the Emax was 65 to 85% on M1 muscarinic receptor (compound nos. 1-454) and above 70% at M4 muscarinic receptor (compound nos. 1-454). Moreover, the “M1 Activity” value at M1 muscarinic receptor (setting [1]) was “++ (activity was measured to be between 0.7 μM and 3.0 μM)”. The “M4 Activity” value on M4 muscarinic receptor (setting [2]) was “+ (activity was measured to be greater than or equal to 4.0 μM)”.
In the case of `CCCOC(=O)N1CCC(CN2CCC3(CC2)CN(C(C)=O)c2ccc(F)cc23)CC1` [compound 98], the Emax at M1 muscarinic receptor (compound nos. 1-454) was 65 to 85%; at M4 muscarinic receptor (compound nos. 1-454), below 55%. Moreover, the “M1 Activity” value at M1 muscarinic receptor (setting [1]) is given as “+++ (activity was measured to be less than or equal to 0.7 μM)”. In addition, at M4 muscarinic receptor (setting [2]), the “M4 Activity” value was “++ (activity was measured to be between 0.1 μM and 4.0 μM)”.
On to `CC(C)NC(=O)N1C2CCC1CC(N1CCC3(CC1)COc1ccc(F)cc13)C2` (centres unmarked) [compound 289], for which the Emax is below 65% on M1 muscarinic receptor (compound nos. 1-454) and below 55% on M4 muscarinic receptor (compound nos. 1-454). For the same compound, the “M1 Activity” value on M1 muscarinic receptor (setting [1]) is on record as “+++ (activity was measured to be less than or equal to 0.7 μM)”. At M4 muscarinic receptor (setting [2]), the “M4 Activity” value is listed as “+ (activity was measured to be greater than or equal to 4.0 μM)”.
